Assay [1] concerns carotid-ligation induced intimal hyperplasia. The experiment in a line: Carotid ligation model, intima/media ratio (hematoxylin-eosin staining). Type of assay: in vivo, ICR mice. The conditions noted are these: mice, vs control group. Here is the method: (§1) Male ICR mice, weighing 20 to 25 g, were used as a carotidligation model. Fifteen mice were randomly assigned to 3 treatment groups, five mice for each group. All mice were fasted overnight with free access to water, then anesthetized with zoletil® (25 mg/kg i.p.). Carotid ligation was performed by a midline neck incision and the left common carotid artery exposed. The carotid artery was completely ligated just proximal to the carotid bifurcation, and the right carotid artery served as a non-injured control artery. The incision was closed after ligation, and the animals were allowed to recover. On the day of carotid ligation, mice were randomized into 3 treatment groups and anesthetized as described. Group 1 mice were treated with saline and groups 2 and 3 treated with pipoxolan (10 mg/kg and 30 mg/kg, respectively). Subsequent pipoxolan and saline treatments were given by gastric gavage on the second day after carotid ligation and once daily for 28 days. […] Images were digitized and analyzed with Image-Pro software. The areas of the lumen, internal elastic lamina (IEL), and external elastic lamina (EEL) were determined by computerized planimetry. The intima area was calculated by subtracting the luminal from the IEL area, and media area was determined by subtracting the IEL area from the EEL area. The ratio of intima to media area (I/M ratio) was calculated and analyzed. […]

For assay [2], the system named is TUNEL positive cells. The experiment in a line: TUNEL assay in cortex of ischemic rats. Type of assay: in vivo, Sprague-Dawley (SD) rats. Conditions: rat cortex, 24 hr after focal ischemia. Here is the method: Nine rats were randomly assigned into 3 treatment groups, three rats for each group. Group 1 rats were treated with saline and groups 2 and 3 treated with pipoxolan (10 mg/kg and 30 mg/kg, respectively). Focal ischemia was induced by occlusion of both CCA and the right MCA as previously described. Twenty four hours after focal ischemia, rats were deeply anesthetized by intraperitoneal injection of 50 mg/kg of zoletil® followed by intracardiac perfusion with 200 ml of 0.9% saline, followed by 4% paraformaldehyde in 0.1 M PBS and animals were decapitated. The percentage of positive TUNEL staining cells within areas of the cortex was estimated.

Assay [3] deals with PCNA-positive cells. The experiment in a line: Carotid ligation model, PCNA antibody staining of the carotid artery. Conditions: mice. The assay is classed as in vivo, ICR mice. Here is the method: as §1
The test system of assay [4] is neurological deficits in ischemic rats. The experiment in a line: Evaluation of neurological deficits after ischemia-reperfusion. The assay is classed as in vivo, Sprague-Dawley (SD) rats. Conditions: 24 hr after reperfusion; for neurological deficits (score 0-5): mean±SE. Here is the method:
Focal ischemia was induced by occlusion of both common carotid arteries (CCA) and the right middle cerebral artery (MCA). Eighteen rats were randomly assigned to 3 treatment groups, six rats for each group. Group 1 rats were treated with saline and groups 2 and 3 treated with pipoxolan (10 mg/kg and 30 mg/kg, respectively). Rats were fasted overnight with free access to water. Pipoxolan (10, 30 mg/kg) was orally administered 1 hr prior to transient focal cerebral ischemia-reperfusion. Animals then were anesthetized with zoletil® (25 mg/kg i.p.), and the skull was exposed, and a small burr hole was produced over the MCA. Beneath the right MCA, proximal to the major bifurcation of the right MCA, distal to the lenticulostriate arteries, and rostral to the rhinal fissure, a 10-0 nylon monofilament was placed. The artery then was lifted and the nylon filament rotated clockwise. Both CCA were then occluded using a microvascular clip. After 90 minutes of occlusion, reperfusion was established by removing the microvascular clips from the CCA, rotating the nylon monofilament counterclockwise and removing it from beneath the MCA. After 24 hr, all rats were alive and neurobehavioral deficits evaluation and infarct assessment were performed Twenty four hours following reperfusion, neurological function of rats was assessed. The degree of neurological deficits were divided 0-5 (higher score is for more severe neurological deficits) as follows: 0=no neurological deficits, 1=failure to extend left forepaw fully, 2=circling to the left, 3=falling to left, 4=no spontaneous walking with a depressed level of consciousness, and 5=death. Neurological evaluation was done by an observer who was blind to the treatment conditions of the animals. After completion of the neurobehavioral evaluation, rats were deeply anesthetized by an intraperitoneal injection of zoletil® (50 mg/kg) followed by intracardiac perfusion with 200 ml of freezing PBS and animals were then decapitated. The brain was removed and sliced in 2-mm sections using a rodent brain matrix slicer. The sections were stained with 2% 2,3,5-triphenyltetrazoliumchloride (TTC) for 10 min at 37° C. and fixed in 10% formalin. The image of each section was digitized and the infarct area was determined morphometrically using Image-Pro Plus 6.0 (Media Cybernetics, Md., USA).

For assay [5], the system named is p-ERK. The experiment in a line: Western blot of p-ERK in PDGF-BB-stimulated VSMCs. The assay is classed as cell-based. Here is the method: (§2) The role of matrix metalloproteinase-2/9 (MMP-2/9) and the Ras/MEK/ERK signaling pathways were used to evaluate the effect of pipoxolan on VSMCs migration. The protein expression levels were determined by Western blot analysis. Each vertical bars represented mean±S.E. **p<0.01 and ***p<0.001 compared with control group (n=6 in each group).
Background: Immunoblotting shows a protein as a band on a membrane.

The subject of assay [6] is MMP-2. The experiment in a line: Western blot of MMP-2 in PDGF-BB-stimulated VSMCs. The assay is classed as cell-based. Here is the method: as §2
The subject of assay [7] is MEK. The experiment in a line: Western blot of MEK in PDGF-BB-stimulated VSMCs. The assay is classed as cell-based. Here is the method:
as §2

Where [8] appears, read: 10 mg/kg p.o. once daily for 28 days after carotid ligation.
Where [9] appears, read: 30 mg/kg p.o. once daily for 28 days after carotid ligation.

With `Cl.O=C1OC(CCN2CCCCC2)OC1(c1ccccc1)c1ccccc1` (stereo not drawn) [pipoxolan, 5,5-diphenyl-2-(2-piperidin-1-ylethyl)-1,3-dioxolan-4-one hydrochloride], the “percent reduction of I/M ratio (intima/media)” value in assay [1] (setting [8]) was 24.21%; in assay [1] (setting [9]), 47.20%. The results for the “percent reduction of TUNEL positive cells” value in assay [2] (10 mg/kg) and in assay [2] (30 mg/kg) were 31.25% and 46.88%, respectively. The “percent inhibition of PCNA-positive cells” value is 42.11% in assay [3] (setting [8]) and 62.40% in assay [3] (setting [9]). In addition, the entries for the “reduction of neurological deficits” value in assay [4] (10 mg/kg p.o.) and in assay [4] (30 mg/kg p.o.) were 31.25% and 46.88%, respectively. Also, the “neurological deficits (score 0-5)” value in assay [4] (10 mg/kg p.o.) came to 2.20±0.20; in assay [4] (30 mg/kg p.o.) it was 1.7±0.21. Also, the “reduction of p-ERK protein level” value came to 50.33% in assay [5] (5 μM), 51.67% in assay [5] (10 μM) and 75% in assay [5] (15 μM). Besides, the “reduction of MMP-2 protein level” value in assay [6] (10 μM) was 12.4%; in assay [6] (15 μM), 24.4%. The results for the “reduction of MEK protein level” value in assay [7] (5 μM), in assay [7] (10 μM) and in assay [7] (15 μM) were 21.67%, 21% and 26.67%, respectively.

The record behind these values is patent US20150037399A1, “NOVEL USE OF PIPOXOLAN AND ITS PHARMACEUTICAL COMPOSITION” (China Medical University, priority 2013, published 2015).
